Assay results reported in PubChem BioAssay AID248 (DTP/NCI, 2004).
“And” between values parts separate entries of the source, which are not always exact repeats. Equal values may be shown once. Toxic doses and inconclusive results are not listed.

Tested on: L1210 leukemia ip in BDF1 mice, survival T/C
Experiment: NCI In Vivo Anticancer Drug Screen. Data for tumor model L1210 Leukemia (intraperitoneal) in B6D2F1 (BDF1) mice
Details: endpoint: mean survival time, higher = longer survival
In short: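 Tumor was transplanted into mice, which were then dosed with test compound or vehicle alone. Survival was recorded for each group, and the treated figure was expressed relative to the control figure.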

[1] = dose: 100.0 mg/kg/injection, schedule: Q01DX009 (ip), vehicle: saline with Tween-80
[2] = dose: 200.0 mg/kg/injection, schedule: Q01DX009 (ip), vehicle: saline with Tween-80
[3] = dose: 400.0 mg/kg/injection, schedule: Q01DX009 (ip), vehicle: saline with Tween-80
[4] = dose: 100.0 mg/kg/injection, schedule: Q01DX009 (ip), vehicle: saline
[5] = dose: 100.0 mg/kg/injection, schedule: Q04DX003 (ip), vehicle: saline
[6] = dose: 200.0 mg/kg/injection, schedule: Q01DX009 (ip), vehicle: saline
[7] = dose: 200.0 mg/kg/injection, schedule: Q04DX003 (ip), vehicle: saline

C1=CC2C3CCC(C3)C2C1 (configuration not stated)
T/C (dose: 50.0 mg/kg/injection, schedule: Q01DX009 (ip), vehicle: saline with Tween-80): 96 % of control | T/C [1]: 102 % of control and 88 % of control | T/C (dose: 100.0 mg/kg/injection, schedule: Q04DX003 (ip), vehicle: saline with Tween-80): 98 % of control and 101 % of control | T/C [2]: 94 % of control and 108 % of control | T/C (dose: 200.0 mg/kg/injection, schedule: Q04DX003 (ip), vehicle: saline with Tween-80): 93 % of control and 101 % of control | T/C [3]: 95 % of control | T/C (dose: 400.0 mg/kg/injection, schedule: Q04DX003 (ip), vehicle: saline with Tween-80): 93 % of control and 96 % of control

CN1CCN=C1c1ccc(NC(=O)c2ccc(C(=O)Nc3ccc(C4=NCCN4C)cc3)c(N)c2)cc1
T/C (dose: 3.0 mg/kg/injection, schedule: Q01DX Z (ip), vehicle: carboxymethylcellulose (CMC)): 242 % of control | T/C (dose: 6.0 mg/kg/injection, schedule: Q01DX Z (ip), vehicle: carboxymethylcellulose (CMC)): 159 % of control | T/C (dose: 6.0 mg/kg/injection, schedule: Q01DX Z (oral), vehicle: water): 98 % of control | T/C (dose: 12.0 mg/kg/injection, schedule: Q01DX Z (ip), vehicle: carboxymethylcellulose (CMC)): 103 % of control | T/C (dose: 12.0 mg/kg/injection, schedule: Q01DX Z (oral), vehicle: water): 95 % of control | T/C (dose: 24.0 mg/kg/injection, schedule: Q01DX Z (oral), vehicle: water): 98 % of control | T/C (dose: 48.0 mg/kg/injection, schedule: Q01DX Z (oral), vehicle: water): 101 % of control

O=C1C=C2C(=CCOC2O)O1 (configuration not stated)
T/C (dose: 0.25 mg/kg/injection, schedule: Q01DX009 (ip), vehicle: Klucel (hydroxypropylcellulose) (HPC)): 97 % of control | T/C (dose: 0.5 mg/kg/injection, schedule: Q01DX009 (ip), vehicle: Klucel (hydroxypropylcellulose) (HPC)): 103 % of control | T/C (dose: 1.0 mg/kg/injection, schedule: Q01DX009 (ip), vehicle: Klucel (hydroxypropylcellulose) (HPC)): 109 % of control | T/C (dose: 2.0 mg/kg/injection, schedule: Q01DX009 (ip), vehicle: Klucel (hydroxypropylcellulose) (HPC)): 104 % of control | T/C (dose: 4.0 mg/kg/injection, schedule: Q01DX009 (ip), vehicle: Klucel (hydroxypropylcellulose) (HPC)): 101 % of control

O=C(Nc1ccc(Cl)c([N+](=O)[O-])c1)Oc1ccc2ccccc2c1
T/C (dose: 100.0 mg/kg/injection, schedule: Q01DX009 (ip), vehicle: other): 92 % of control | T/C (dose: 200.0 mg/kg/injection, schedule: Q01DX009 (ip), vehicle: other): 97 % of control | T/C (dose: 400.0 mg/kg/injection, schedule: Q01DX009 (ip), vehicle: other): 107 % of control

CNCCN1CCCC1
T/C (dose: 50.0 mg/kg/injection, schedule: Q01DX009 (ip), vehicle: saline): 95 % of control | T/C [4]: 103 % of control | T/C [5]: 102 % of control | T/C [6]: 101 % of control | T/C [7]: 109 % of control

N#Cc1[nH]cnc1N1CC[N+](CCCl)=N1
T/C [4]: 104 % of control | T/C [6]: 103 % of control | T/C (dose: 400.0 mg/kg/injection, schedule: Q01DX009 (ip), vehicle: saline): 95 % of control

COc1ccc(Cl)cc1NC(=O)Nc1c(C)n(C)n(-c2ccccc2)c1=O
T/C (dose: 100.0 mg/kg/injection, schedule: Q01DX001 (ip), vehicle: saline): 90 % of control | T/C [1]: 89 % of control | T/C [5]: 97 % of control | T/C (dose: 200.0 mg/kg/injection, schedule: Q01DX001 (ip), vehicle: saline): 89 % of control | T/C [2]: 89 % of control | T/C [7]: 101 % of control | T/C (dose: 400.0 mg/kg/injection, schedule: Q01DX001 (ip), vehicle: saline): 94 % of control | T/C [3]: 87 % of control | T/C (dose: 400.0 mg/kg/injection, schedule: Q04DX003 (ip), vehicle: saline): 92 % of control

N#C[S-].N#C[S-].N#C[S-].N#C[S-].[Co]
T/C (dose: 5.0 mg/kg/injection, schedule: Q01DX001 (ip), vehicle: saline): 96 % of control | T/C (dose: 10.0 mg/kg/injection, schedule: Q01DX001 (ip), vehicle: saline): 104 % of control | T/C (dose: 20.0 mg/kg/injection, schedule: Q01DX001 (ip), vehicle: saline): 106 % of control
